Laboratory results reported in patent publication US20100021885A1, “REAGENT SETS AND GENE SIGNATURES FOR NON-GENOTOXIC HEPATOCARCINOGENICITY” (priority 2006, published 2010).
Like-named read-outs stand apart in the source and are kept apart here.

Columns and labels:
liver of rats = settings: cited from earlier work
[1] = tested on: livers from treated male Sprague-Dawley rats
Description: Briefly, in vivo short-term repeat dose rat studies were conducted on over 580 test compounds, including marketed and withdrawn drugs, environmental and industrial toxicants, and standard biochemical reagents. Rats (three per group) were dosed daily at either a low or high dose. […] Animals were necropsied on days 0.25, 1, 3, and 5 or 7. Up to 13 tissues (e.g., liver, kidney, heart, bone marrow, blood, spleen, brain, intestine, glandular and nonglandular stomach, lung, muscle, and gonads) were collected for histopathological evaluation and microarray expression profiling on the Amersham CodeLink™ RU1 platform (also referred to herein as “CodeLink Uniset™ Rat 1 Bioarray”). In addition, a clinical pathology panel consisting of 37 clinical chemistry and hematology parameters was generated from blood samples collected on days 3 and 5.
The remaining 21 NGTC chemicals and 26 NC chemicals were reserved for independent validation of the signature. Each chemical was evaluated in a short term repeat dose in vivo study in male Sprague-Dawley rats (n=3/group). The livers from treated and control rats were collected after 1, 3 and 5 days of dosing and RNA was extracted for gene expression profiling. Gene expression changes in treated animals were compared to suitably matched controls and represented as average log10 ratios for each treatment group. Since the development of tumors is a long term multi-step process, the 100 training set chemicals were profiled at the latest time point in order to capture gene expression changes that were likely to be reflective of repeat dose treatment effects that contribute to carcinogenicity and not reflective of an initial stimulus following a single dose that may be transient in nature.
Male Sprague-Dawley (Crl:CD®(SD)(IGS)BR) rats (weight matched, 7 to 8 weeks of age and averaging 200 to 250 g) were purchased from Charles River Laboratories (Portage, Mich.) and housed individually in hanging, stainless steel, wire-bottom cages in a temperature (66-77° F.), light (12-hour dark/light cycle) and humidity (30-70%) controlled room. […] Housing and treatment of the animals were in accordance with regulations outlined in the USDA Animal Welfare Act (9 CFR Parts 1, 2 and 3). Animals were assigned to groups such that mean body weights were within 10% of the mean vehicle control group. Test articles were administered either orally (10 ml of corn oil/kg body weight) or by intra-peritoneal injection (5 ml of saline/kg body weight), as indicated. Animals were dosed once daily starting on day 0, and necropsied 24 hrs after the last dose, as indicated. An equivalent number of time- and vehicle-matched control rats were treated concurrently.
Briefly, liver samples from 3 rats were chosen from each treatment and control group for gene expression analysis on the Codelink Uniset™ Rat 1 Bioarray (GE Healthcare Bio-Sciences Corp., Piscataway, N.J.). A complete list of probes on the array is provided on the Amersham Biosciences web site (www.amershambiosciences.com). Log transformed signal data for all probes were array-wise normalized used Array Qualifier (Novation Biosciences, Palo Alto, Calif.), a non-linear centralization normalization procedure adapted for the CodeLink microarray platform. Log10 ratios for each experimental group are computed as the difference between the average of the logs of the normalized experimental signals and the average of the logs of the normalized control signals for each gene.
where S is the scalar product and b is the bias term. Evaluation of S for a test experiment across the n genes in the signature determines what side of the hyperplane in m dimensional space the test experiment lies, and thus the result of the classification. Experiments with scalar products greater than 0 are considered positive for non-genotoxic hepatocarcinogenicity.

[2] = test chemicals, literature class NGTC or NC
[3] = male, Sprague-Dawley, rat, in vivo
[4] = maximum of days 1, 3, 5, greater than zero = classified non-genotoxic hepatocarcinogen

CCCCC(CC)COC(=O)c1ccccc1C(=O)OCC(CC)CCCC (centres unmarked) [BIS(2-ETHYLHEXYL)PHTHALATE]
Class (liver of rats; rat, in vivo): NGTC | Day 1 (scalar product) ([1]; rat, in vivo): 0.47 | Day 3 (scalar product) ([1]; rat, in vivo): 1.04 | Day 5 (scalar product) ([1]; rat, in vivo): −0.09 | Max (maximum scalar product observed over the multiple time points) ([1]; rat, in vivo): 1.04

NC(=O)N1c2ccccc2C=Cc2ccccc21 [CARBAMAZEPINE]
Class (liver of rats; [2]): NGTC | Max (maximum scalar product observed over the multiple time points) [1, 3]: −0.35

CC(=O)O[C@]1(C(C)=O)CC[C@H]2[C@@H]3C=C(Cl)C4=CC(=O)[C@@H]5C[C@@H]5[C@]4(C)[C@H]3CC[C@@]21C [CYPROTERONE ACETATE]
Class (liver of rats; [2]): NGTC | Max (maximum scalar product observed over the multiple time points) [1, 3]: 1.16

CC/C(=C(/CC)c1ccc(O)cc1)c1ccc(O)cc1 [DIETHYLSTILBESTROL]
Class (liver of rats; [2]): NGTC | Max (maximum scalar product observed over the multiple time points) [1, 3]: 2.75

CC[C@]1(O)CC[C@H]2[C@@H]3CCC4=CCCC[C@@H]4[C@H]3CC[C@@]21C [ETHYLESTRENOL]
Class (liver of rats; [2]): NGTC | Max (maximum scalar product observed over the multiple time points) [1, 4]: 2.25

COC(=O)Nc1nc2ccc(Sc3ccccc3)cc2[nH]1 [FENBENDAZOLE]
Class (liver of rats; [2]): NGTC | Max (maximum scalar product observed over the multiple time points) [1, 4]: 0.17

OC(Cn1cncn1)(Cn1cncn1)c1ccc(F)cc1F [FLUCONAZOLE]
Class (liver of rats; [2]): NGTC | Max (maximum scalar product observed over the multiple time points) [1, 3]: 3.63

CC[C@H](C)C(=O)O[C@H]1C[C@@H](C)C=C2C=C[C@H](C)[C@H](CC[C@@H]3C[C@@H](O)CC(=O)O3)[C@H]21 [LOVASTATIN]
Class (liver of rats; [2]): NGTC | Max (maximum scalar product observed over the multiple time points) [1, 3]: 1.07

CCN(CC)N=O [N-nitrosodiethylamine, reference compound]
Class (liver of rats; rat, in vivo): GTC | Day 1 (scalar product) ([1]; male, rat, in vivo): −2.17 | Day 3 (scalar product) ([1]; male, rat, in vivo): −1.83 | Day 5 (scalar product) ([1]; male, rat, in vivo): −1.41 | Max (maximum scalar product observed over the multiple time points) ([1]; male, rat, in vivo): −1.41 | signature prediction for non-genotoxic hepatocarcinogenicity ([1]; rat, in vivo): negative

COC(=O)Nc1nc2ccc([S+]([O-])c3ccccc3)cc2[nH]1 (centres unmarked) [OXFENDAZOLE]
Class (liver of rats; [2]): NGTC | Max (maximum scalar product observed over the multiple time points) [1, 3]: 0.32

CC(=O)S[C@@H]1CC2=CC(=O)CC[C@]2(C)[C@H]2CC[C@@]3(C)[C@@H](CC[C@@]34CCC(=O)O4)[C@H]12 [SPIRONOLACTONE]
Class (liver of rats; [2]): NGTC | Max (maximum scalar product observed over the multiple time points) [1, 3]: 0.37

C[C@]12Cc3c[nH]nc3C[C@@H]1CC[C@@H]1[C@@H]2CC[C@@]2(C)[C@H]1CC[C@]2(C)O [STANOZOLOL]
Class (liver of rats; [2]): NGTC | Max (maximum scalar product observed over the multiple time points) [1, 4]: 0.54

C[C@]12CC[C@H]3[C@@H](CCC4=CC(=O)CC[C@@]43C)[C@@H]1CC[C@@H]2O [TESTOSTERONE]
Class (liver of rats; rat, in vivo): NGTC | Day 1 (scalar product) ([1]; male, rat, in vivo): 0.25 | Day 3 (scalar product) ([1]; male, rat, in vivo): 0.45 | Day 5 (scalar product) ([1]; male, rat, in vivo): −0.63 | Max (maximum scalar product observed over the multiple time points) ([1]; male, rat, in vivo): 0.45

ClC(Cl)(Cl)Cl [carbon tetrachloride, reference compound]
Class (liver of rats; [2]): NGTC | signature prediction for non-genotoxic hepatocarcinogenicity ([1]; 37 gene signature, maximum scalar product over days 1, 3 and 5, scalar product greater than zero = positive): positive | Max (maximum scalar product observed over the multiple time points) [1, 4]: 0.50

ClC(Cl)Cl [chloroform, reference compound]
Class (liver of rats; rat, in vivo): NGTC | Day 1 (scalar product) ([1]; male, rat, in vivo): 1.50 | Day 3 (scalar product) ([1]; male, rat, in vivo): 0.74 | Day 5 (scalar product) ([1]; male, rat, in vivo): 0.27 | Max (maximum scalar product observed over the multiple time points) ([1]; male, rat, in vivo): 1.50

NN [hydrazine, reference compound]
Class (liver of rats; rat, in vivo): GTC | Day 1 (scalar product) ([1]; male, rat, in vivo): −0.10 | Day 3 (scalar product) ([1]; male, rat, in vivo): −1.31 | Day 5 (scalar product) ([1]; male, rat, in vivo): −1.48 | Max (maximum scalar product observed over the multiple time points) ([1]; male, rat, in vivo): −0.10 | signature prediction for non-genotoxic hepatocarcinogenicity ([1]; rat, in vivo): negative
